Source: US8802597B2, “Herbicidal pyrimidines” (E I du Pont de Nemours and Company, priority 2003, dated 2014)
Read-outs that look alike come from different tables or passages of the source.

Key:
Assay in all cases: Test A pre/postemergence
Assay type in all cases: in vivo
[1] = test system: barnyardgrass (Echinochloa crus-galli); details: Echinochloa crus-galli, 240 h, read-out: Plant response rating, Barnyardgrass; for pest or weed control at 125 g/ha: 125 g ai/ha; for pest or weed control at 500 g/ha: 500 g ai/ha
In short: (§1)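 Visual injury scores on a 0–100 scale, 100 being complete control, were assigned roughly ten days after treatment by comparison with untreated greenhouse controls. Test chemicals, formulated with surfactant in non-phytotoxic solvent, were sprayed onto soil preemergence and onto 1–2-leaf plants 2–10 cm tall postemergence.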

[2] = test system: morningglory (Ipomoea spp.); details: Ipomoea, 240 h, read-out: Plant response rating, Morningglory; for pest or weed control at 125 g/ha: 125 g ai/ha; for pest or weed control at 500 g/ha: 500 g ai/ha
In short: as §1

[3] = test system: velvetleaf (Abutilon theophrasti); details: Abutilon theophrasti, 240 h, read-out: Plant response rating, Velvetleaf; for pest or weed control at 125 g/ha: 125 g ai/ha; for pest or weed control at 500 g/ha: 500 g ai/ha
In short: as §1

[4] = test system: redroot pigweed (Amaranthus retroflexus); details: Amaranthus retroflexus, 240 h, read-out: Plant response rating, Pigweed; for pest or weed control at 125 g/ha: 125 g ai/ha; for pest or weed control at 500 g/ha: 500 g ai/ha
In short: as §1

[5] = test system: crabgrass (Digitaria sanguinalis); details: Digitaria sanguinalis, 240 h, read-out: Plant response rating, Crabgrass; for pest or weed control at 125 g/ha: 125 g ai/ha; for pest or weed control at 500 g/ha: 500 g ai/ha
In short: as §1

[6] = test system: giant foxtail (Setaria faberi); details: Setaria faberi, 240 h, read-out: Plant response rating, Foxtail, Giant; for pest or weed control at 125 g/ha: 125 g ai/ha; for pest or weed control at 500 g/ha: 500 g ai/ha
In short: as §1

[7] = post-emergence, Postemergence, 0 to 100 scale (0 no effect, 100 complete control)
[8] = pre-emergence, Preemergence, 0 to 100 scale where 0 is no effect and 100 is complete control, approximately ten days

For `COC(=O)c1nc(-c2ccc(Cl)cc2)nc(N)c1Cl` [Compound 58, methyl 6-amino-5-chloro-2-(4-chlorophenyl)-4-pyrimidinecarboxylate], which pest or weed control at 125 g/ha [1, 7] is on record?
Its pest or weed control at 125 g/ha is 5%.

And the pest or weed control at 500 g/ha [1, 7]?
Its pest or weed control at 500 g/ha is 10%.

And the pest or weed control at 125 g/ha [1, 8]?
The pest or weed control at 125 g/ha was 0%.

What about the pest or weed control at 500 g/ha [1, 8] of the same compound?
Its pest or weed control at 500 g/ha is 0%.

And the pest or weed control at 125 g/ha [2, 7]?
Its pest or weed control at 125 g/ha is 55%.

What about the pest or weed control at 500 g/ha [2, 7] of the same compound?
The pest or weed control at 500 g/ha was 80%.

And the pest or weed control at 125 g/ha [2, 8]?
Its pest or weed control at 125 g/ha is 10%.

And the pest or weed control at 500 g/ha [2, 8]?
The pest or weed control at 500 g/ha was 25%.

What about the pest or weed control at 125 g/ha [3, 7] of the same compound?
The pest or weed control at 125 g/ha was 70%.

What about the pest or weed control at 500 g/ha [3, 7] of the same compound?
Its pest or weed control at 500 g/ha is 85%.

What about the pest or weed control at 125 g/ha [3, 8] of the same compound?
Its pest or weed control at 125 g/ha is 0%.

What about the pest or weed control at 500 g/ha [3, 8] of the same compound?
Its pest or weed control at 500 g/ha is 40%.

And the pest or weed control at 125 g/ha [4, 7]?
Its pest or weed control at 125 g/ha is 70%.

What about the pest or weed control at 500 g/ha [4, 7] of the same compound?
Its pest or weed control at 500 g/ha is 80%.

What about the pest or weed control at 125 g/ha [4, 8] of the same compound?
Its pest or weed control at 125 g/ha is 0%.

What about the pest or weed control at 500 g/ha [4, 8] of the same compound?
The pest or weed control at 500 g/ha was 60%.

What about the pest or weed control at 125 g/ha [5, 7] of the same compound?
Its pest or weed control at 125 g/ha is 5%.

And the pest or weed control at 500 g/ha [5, 7]?
Its pest or weed control at 500 g/ha is 10%.

And the pest or weed control at 125 g/ha [5, 8]?
Its pest or weed control at 125 g/ha is 0%.

And the pest or weed control at 500 g/ha [5, 8]?
Its pest or weed control at 500 g/ha is 0%.

And the pest or weed control at 125 g/ha [6, 7]?
The pest or weed control at 125 g/ha was 0%.

What about the pest or weed control at 500 g/ha [6, 7] of the same compound?
The pest or weed control at 500 g/ha was 50%.

And the pest or weed control at 125 g/ha [6, 8]?
Its pest or weed control at 125 g/ha is 0%.

And the pest or weed control at 500 g/ha [6, 8]?
The pest or weed control at 500 g/ha was 10%.

Which results are given for `COC(=O)c1nc(C2CC2)nc(N)c1OC` [Compound 59]?
pest or weed control at 125 g/ha [1, 7]: 0%; pest or weed control at 500 g/ha [1, 7]: 30%; pest or weed control at 125 g/ha [1, 8]: 0%; pest or weed control at 500 g/ha [1, 8]: 15%; pest or weed control at 125 g/ha [2, 7]: 90%; pest or weed control at 500 g/ha [2, 7]: 100%; pest or weed control at 125 g/ha [2, 8]: 80%; pest or weed control at 500 g/ha [2, 8]: 100%; pest or weed control at 125 g/ha [3, 7]: 60%; pest or weed control at 500 g/ha [3, 7]: 85%; pest or weed control at 125 g/ha [3, 8]: 10%; pest or weed control at 500 g/ha [3, 8]: 45%; pest or weed control at 125 g/ha [4, 7]: 60%; pest or weed control at 500 g/ha [4, 7]: 80%; pest or weed control at 125 g/ha [4, 8]: 20%; pest or weed control at 500 g/ha [4, 8]: 70%; pest or weed control at 125 g/ha [5, 7]: 0%; pest or weed control at 500 g/ha [5, 7]: 10%; pest or weed control at 125 g/ha [5, 8]: 0%; pest or weed control at 500 g/ha [5, 8]: 0%; pest or weed control at 125 g/ha [6, 7]: 0%; pest or weed control at 500 g/ha [6, 7]: 35%; pest or weed control at 125 g/ha [6, 8]: 0%; pest or weed control at 500 g/ha [6, 8]: 0%

Which results are given for `CCOC(=O)c1nc(-c2ccc3c(c2)OCO3)nc(N)c1Cl` [Compound 74]?
pest or weed control at 125 g/ha [1, 7]: 30%; pest or weed control at 500 g/ha [1, 7]: 70%; pest or weed control at 125 g/ha [1, 8]: 0%; pest or weed control at 500 g/ha [1, 8]: 50%; pest or weed control at 125 g/ha [2, 7]: 40%; pest or weed control at 500 g/ha [2, 7]: 30%; pest or weed control at 125 g/ha [2, 8]: 0%; pest or weed control at 500 g/ha [2, 8]: 30%; pest or weed control at 125 g/ha [3, 7]: 70%; pest or weed control at 500 g/ha [3, 7]: 80%; pest or weed control at 125 g/ha [3, 8]: 30%; pest or weed control at 500 g/ha [3, 8]: 50%; pest or weed control at 125 g/ha [4, 7]: 60%; pest or weed control at 500 g/ha [4, 7]: 70%; pest or weed control at 125 g/ha [4, 8]: 0%; pest or weed control at 500 g/ha [4, 8]: 40%; pest or weed control at 125 g/ha [5, 7]: 30%; pest or weed control at 500 g/ha [5, 7]: 60%; pest or weed control at 125 g/ha [5, 8]: 20%; pest or weed control at 500 g/ha [5, 8]: 50%; pest or weed control at 125 g/ha [6, 7]: 60%; pest or weed control at 500 g/ha [6, 7]: 70%; pest or weed control at 125 g/ha [6, 8]: 0%; pest or weed control at 500 g/ha [6, 8]: 40%

Which pest or weed control at 125 g/ha [1, 7] does the source give for `CNc1nc(C2CC2)nc(C(=O)OC)c1Cl` [Compound 79] here?
The pest or weed control at 125 g/ha was 85%.

What about the pest or weed control at 500 g/ha [1, 7] of the same compound?
Its pest or weed control at 500 g/ha is 90%.

What about the pest or weed control at 125 g/ha [1, 8] of the same compound?
Its pest or weed control at 125 g/ha is 30%.

And the pest or weed control at 500 g/ha [1, 8]?
The pest or weed control at 500 g/ha was 80%.

And the pest or weed control at 125 g/ha [2, 7]?
Its pest or weed control at 125 g/ha is 90%.

And the pest or weed control at 500 g/ha [2, 7]?
Its pest or weed control at 500 g/ha is 95%.

And the pest or weed control at 125 g/ha [2, 8]?
Its pest or weed control at 125 g/ha is 55%.

What about the pest or weed control at 500 g/ha [2, 8] of the same compound?
The pest or weed control at 500 g/ha was 100%.

And the pest or weed control at 125 g/ha [3, 7]?
The pest or weed control at 125 g/ha was 90%.

What about the pest or weed control at 500 g/ha [3, 7] of the same compound?
Its pest or weed control at 500 g/ha is 95%.

What about the pest or weed control at 125 g/ha [3, 8] of the same compound?
The pest or weed control at 125 g/ha was 60%.

And the pest or weed control at 500 g/ha [3, 8]?
Its pest or weed control at 500 g/ha is 90%.

What about the pest or weed control at 125 g/ha [4, 7] of the same compound?
The pest or weed control at 125 g/ha was 90%.

What about the pest or weed control at 500 g/ha [4, 7] of the same compound?
The pest or weed control at 500 g/ha was 100%.

And the pest or weed control at 125 g/ha [4, 8]?
Its pest or weed control at 125 g/ha is 90%.

What about the pest or weed control at 500 g/ha [4, 8] of the same compound?
The pest or weed control at 500 g/ha was 100%.

And the pest or weed control at 125 g/ha [5, 7]?
The pest or weed control at 125 g/ha was 40%.

What about the pest or weed control at 500 g/ha [5, 7] of the same compound?
The pest or weed control at 500 g/ha was 75%.

And the pest or weed control at 125 g/ha [5, 8]?
Its pest or weed control at 125 g/ha is 30%.

And the pest or weed control at 500 g/ha [5, 8]?
The pest or weed control at 500 g/ha was 80%.

What about the pest or weed control at 125 g/ha [6, 7] of the same compound?
The pest or weed control at 125 g/ha was 80%.

What about the pest or weed control at 500 g/ha [6, 7] of the same compound?
Its pest or weed control at 500 g/ha is 90%.

And the pest or weed control at 125 g/ha [6, 8]?
The pest or weed control at 125 g/ha was 40%.

And the pest or weed control at 500 g/ha [6, 8]?
Its pest or weed control at 500 g/ha is 95%.
